Reference: PMC8618187 (Nanomaterials, 2021)
Like-named read-outs stand apart in the source and are kept apart here.

Assays:
[1] = In vitro PTX release with kinetic modelling (with/without GSH); assay type: physicochemical; conditions: without GSH
Experimental: Glutathione (GSH)-triggered release was investigated in vitro from Ms, R-Ms, PR-Ms, and PT-R-Ms formulations (without GSH) and from PT-R-Ms in the presence of 20 mM GSH.
Redox responsive multifunctional micelles remained indolent in the physiological environment and became activated when they reached a reductive environment, which is another approach for targeted site-specific delivery. As a proof-of-concept, glutathione (GSH)-triggered release (to mimic the redox tumor microenvironment) was investigated in vitro from Ms, R-Ms, PR-Ms, and PT-R-Ms formulations (without GSH) and from PT-R-Ms in the presence of 20 mM GSH. The controlled burst release was confirmed by applying kinetic models of drug release (zero-order, Higuchi, Korsmeyer–Peppas, and Hixon Crowell) to the different formulations, and the results are gathered in Table 2. The Korsmeyer–Peppas model was proven to be suitable to explain the release kinetics from the PT-R-Ms, which is a prerequisite for polymeric systems.

HCT-116 cells [2] = experiment: Cell apoptosis by flow cytometry (Annexin V FITC/PI); assay type: cell-based, human; design: dose or concentration left out as unconfirmed; conditions: HCT-116, 48 h
Source text: After treatment, the cells were harvested and washed twice with cold PBS.

[3] = Oral pharmacokinetics of PTX; assay type: in vivo, rats
Source text: Healthy female rats weighing 120–150 g were selected and fasted overnight with free access to water and were randomly distributed into four groups and each group had four rats (n = 4).

rats [4] = experiment: Acute oral toxicity (OECD 425), serum biochemistry, histopathology; conditions: single oral dose of 20 mg of PTX/kg, after 14 days
Experimental: (§1) Healthy, female rats weighing 150 g and aged 10–14 weeks were taken from the animal house. Rats were divided into 4 groups (n = 4) and kept under a standard condition of food and water in the controlled environment. […] The dose (20 mg/kg) was administered orally through oral gavage. […] After 14 days, the rats were sacrificed for blood and serum biochemistry and tissue histology studies [29].
(§2) The blood from each rat was drawn through cardiac puncture into BD vacutainer blood collection tubes. […] The clear supernatant was carefully removed and stored at −20 °C. Liver function tests (LFTs) including alkaline phosphatase (ALP), serum glutamic-pyruvic transaminase (SGPT), serum glutamic-oxaloacetic transaminase (SGOT) and bilirubin, renal functions tests (RFTs) including urea and creatinine, serum electrolytes (Na, Mg, Ca, and P), glucose and total protein were analyzed using the serum.
(§3) Changes in the organs weight were measured to evaluate the toxicity of tested formulations. The vital organs (heart, kidneys, liver, and spleen) were removed from the rats after being sacrificed, washed with normal saline, and then weighed individually. The weights of organs from treated groups were compared with a control group and body mass index was calculated using the following formula [30]: organ−body weight index (%)=organ weight/body weight×100%
(§4) Vital organs (liver, kidney, heart, and spleen) were examined for toxicity and to notice any pathological changes [31]. The organs were stored in 10% formalin solution. A paraffin section (0.5 µm) was cut into the same size as the organ via a rotary microtome and was properly fixed. Tissue sections were then fixed onto glass slides followed by staining with hematoxylin and eosin periodic acid Schiff (PAS). The sections were examined under a microscope for any toxic effect produced by the redox and non-redox micelles.

rats [5] = conditions: rat, in vivo, po, 20 mg/kg
Experimental: as §1, §2, §3, §4

human macrophages = experiment: Biocompatibility against human macrophages (MTT); assay type: cell-based; conditions: high concentrations
Experimental: Biocompatibility studies of pure PTX, Ms, RMs, PR-Ms, and PT-R-Ms were performed against human macrophages. Ficoll-percoll gradient technique was used to isolate human macrophages. Ficoll solution was prepared by dissolving 5.6 g of ficoll in 9.5 mL deionized water and 5 mL gastrografin to achieve a density of 1.070 g/mL. The fresh human blood (10 cm^3) was diluted three times with Hanks buffer salt solution (HBSS), layered onto a percoll gradient and then centrifuged at 400× g for 5 min to isolate the macrophage layer. The separated cells were suspended in RPMI medium (10% FBS, 100 U/mL penicillin, 0.1 mg/mL streptomycin, and 25 mM HEPES) and incubated at 5% CO2. […] Normal cells were taken as negative controls, while cells treated with 1% Triton X were used as positive controls to investigate the viability.

in vitro = conditions: rat, pH 6.5
Experimental: Briefly, the study was conducted on the intestine of healthy rats weighing between 250–300 g. The rats were sacrificed and the abdomen was opened with a middle incision. The intestine was immediately removed, thoroughly washed with Krebs ringer solution (pH 6.5), and cut into pieces of 4–5 cm. The intestine was everted by carefully passing a narrow glass rod from one end of the intestine and then gently rolling it on a glass rod. All the pieces were stored in an oxygenated Krebs ringer solution at 4 °C until further use. […] Each segment was tied at one end with a silk suture, and 1 mL of sample (1 mg/mL) was carefully filled in the sac using a hypodermic syringe and the other end was tied with a silk suture. […] All filled sacs were immersed in tubes filled with 10 mL of oxygenated Krebs solution and incubated at 37 °C under gentle mechanical shaking. The samples were collected at predefined times from the surrounding medium and replaced with the same amount of fresh solution. […] The apparent permeability was calculated using the following equation:Apparent permeability (µg/cm^2) = (concentration × volume)/mucosal surface area
The mucosal surface area was calculated assuming that the intestine is a cylinder by using the formula:Mucosal surface area (cm^2) = circumference (π × diameter) × length

[6] = In vivo biodistribution (fluorescence of excised organs and tumors); design: species or system rats; conditions: oral
Experimental: The fluorotagged PT-R-Ms were given orally to rats by oral gavage. After 48 h, rats were sacrificed and their major organs were excised to investigate the formulation distribution within them. The fluorescence intensity of the excised organs (heart, liver, spleen, and kidney) was examined using the iBox Explorer2 (iBox® Explorer2 Imaging Microscope; UVP Ltd. The system was set on a 535/45 nm excitation filter and a 605/50 nm emission filter with the automated BioLite™ MultiSpectral Light Source. Images were taken at 0.17× magnification, and the intensity was kept at 6 using the 3.2 MP OptiChemi 610 camera (Vision Works® LS Acquisition, AnlyticJena, Jena, Germany). An analysis software was used to study the images.

HCT-116 cells [7] = experiment: Cellular uptake of curcumin by fluorescence microscopy; assay type: cell-based, human; conditions: curcumin loaded into PT-R-Ms micelles, HCT-116, 0, 6, 12 h
Experimental: To analyze the internalization of curcumin (a P-gP inhibitor) into tumor cells, HCT-116 tumor cells were used. Curcumin as a fluorescent probe was encapsulated within the core of PT-R-Ms micelles following a similar procedure to that mentioned earlier for PTX loaded micelles. The HCT-116 cells were seeded into 6 well plates at a density of 1 × 10^6 cells/well. After 24 h the cells became confluent and were incubated with curcumin-loaded PT-R-Ms for different time periods (0, 6, 12 h). Upon incubation, the medium was removed and the cells were washed with cold PBS. Subsequently, the uptake of curcumin was monitored by fluorescence microscopy (Evos® FL Cell Imaging System, Thermo Fisher Scientific, Waltham, MA, USA). Ex vivo assays based on the tumor tissue slice model were used to analyze the curcumin uptake by inhibition of P-gP efflux pump overexpressed on tumor cells, as reported earlier. Different slides of tumor tissue were prepared and stained with curcumin-loaded PT-R-Ms. Similarly, HCT-116 tumor tissue cells were incubated for different time intervals to monitor the uptake of curcumin.

[8] = female, rat, plasma, oral gavage, 20 mg/kg

For CC(=O)O[C@H]1C(=O)[C@@]2(C)[C@H]([C@H](OC(=O)c3ccccc3)[C@]3(O)C[C@H](OC(=O)[C@H](O)[C@@H](NC(=O)c4ccccc4)c4ccccc4)C(C)=C1C3(C)C)[C@]1(OC(C)=O)CO[C@@H]1C[C@@H]2O [PTX, paclitaxel], the “Higuchi Model K0” value [1] was 40.117, the “Hixon Crowell Model K0” value [1] was 0.190 and the “Korsmeyer–Peppas Model N” value [1] was 0.701. For the same molecule, the “Zero Order K0” value [1] was 21.01, the “percentage of apoptotic cells” value (HCT-116 cells [2]) was 28.57 ± 0.06% and the “time above the minimum effective concentration / within the therapeutic window” value ([3]; MEC 35 ng/mL, oral) was 2 h. For the same molecule, the bioavailability ([3]; female, rat, plasma, po, 20 mg/kg) was 7.5%, the Cmax [3, 8] was 70.69 ± 0.14 ng/mL and the half-life [3, 8] was 32.9 ± 2.2 h. For the same molecule, the AUC(0-t) ([3]; female, rat, plasma, oral gavage, 20 mg/kg, read-out: AUC 0-96) was 4271 ± 8.4 ng·h/mL, the MRT last ([3]; female, rat, plasma, oral gavage, 20 mg/kg, read-out: MRT 0-96) was 54.9 ± 2.7 h and the Tmax ([3]; female, rat, plasma, oral gavage, 20 mg/kg, read-out: Tmax) was 4 ± 0.2 h. The Tmax ([3]; oral gavage, 20 mg/kg) was 2 h, the “Mortality, tissue damage, or bodyweight change” value (rats [4]) was “not observed” and the “histopathological changes in the liver tissue” value (rats [5]) was “cytoplasmic degeneration, necrosis, hemorrhage, and infiltration of inflammatory cells”. The “histopathology of heart tissue” value (rats [5]) was “lesions, myocarditis, and infiltration of inflammatory cells”, the “histopathology of kidney tissue” value (rats [5]) was “distorted glomeruli, dilated tubules, edema exudate, mild necrosis, and infiltration of inflammatory cells” and the “histopathology of spleen tissue” value (rats [5]) was “distorted lymphoid architecture”. The “toxicity against human macrophages” value (human macrophages) was “cytotoxic”, the Papp A→B at 1 mg/mL (in vitro) was 0.43 ± 0.2 ×10⁻⁶ cm/s and the Papp B→A at 1 mg/mL (in vitro) was 2.35 ± 0.2 ×10⁻⁶ cm/s. The “biodistribution: liver” value [6] was “significantly higher uptake in the liver”.

For COc1cc(/C=C/C(=O)CC(=O)/C=C/c2ccc(O)c(OC)c2)ccc1O [curcumin], the “time of maximum curcumin uptake” value (HCT-116 cells [7]) was 12 h.
